Test results from paper PMC2424174, “Suppression of Tumor Growth and Angiogenesis by a Specific Antagonist of the Cell-Surface Expressed Nucleolin” (PLoS ONE, 2008).

System: nucleolin
Test: Nucleolin expression in HB-19 treated MDA-MB-231 cells (immunoblot / immunofluorescence)
Type: cell-based, human
Conditions: for reduction of surface/cytoplasmic nucleolin: 10 µM HB-19, 37°C, vs untreated, immunoblot band intensity
Method: Figure 2 HB-19 binds nucleolin expressed on the surface of tumor cells and causes reduction of cytoplasmic/surface but not nuclear nucleolin. (A) HB-19/Btn forms a stable complex with nucleolin expressed on the surface of cells. MDA-MB-231 cells were incubated (45 min, 20°C) with 0, 1, 2, 4, 8 and 12 µM of HB-19/Btn before preparation of surface/cytoplasmic (i.e., nucleus-free) and nuclear extracts, [28]. Samples of surface nucleolin (purified using surface/cytoplasmic extracts from 2×10^7 cells) and crude surface/cytoplasmic and nuclear extracts (from 2×10^6 cells) were analyzed by immunoblotting for the detection of nucleolin using mAb D3. (B) Specific reduction of surface/cytoplasmic nucleolin in HB-19 treated cells. MDA-MB-231 cells were cultured (at 37°C) with 10 µM of HB-19 for 4, 24 and 48 hours before preparation of cytoplasmic and nuclear extracts. Material from 2×10^6 cells (Untreated or HB-19 treated cells as indicated − or + signs, respectively) was analyzed by immunoblotting for the detection of nucleolin. Sections of the gel at the position of the nucleolin bands are presented. […] The intensity of nucleolin protein bands quantified by using the NIH image software indicated 75% and 93% reduction of surface/cytoplasmic nucleolin in HB-19 treated cells at 24 and 48 hours, respectively, compared to the corresponding untreated cells. (C) HB-19 binds the cell surface and enters in the cytoplasm but not the nucleus. MDA-MB-231 cells were incubated at 20°C (for HB-19 Binding) or 37°C (for HB-19 Entry) with 5 µM of HB-19/Btn for 1 hour before fixation in PFA or PFA-Triton, respectively. Fixed cells were successively incubated with rabbit anti-biotin and goat Texas Red-conjugated anti-rabbit IgG and the nuclei were colored with DAPI. Scans corresponding to the cross-section of cells are shown, each with or without the DAPI. (D) Nucleolar nucleolin is not affected in HB-19 treated cells. MDA-MB-231 cells cultured in the absence (Control Cells) or presence of 10 µM of HB-19 for 48 hours (HB-19 Treated Cells) were fixed in PFA-Triton and processed for fluorescence microscopy.
Cells washed in phosphate-buffered saline (PBS) were lysed in buffer E (20 mM Tris–HCl, pH 7.6, 150 mM NaCl, 5 mM MgCl2, 0.2 mM phenylmethylsulfonyl fluoride (PMSF), 5 mM β-mercaptoethanol, aprotinin (1000 U/ml) and 0.5% Triton X-100) and the nuclei were pelleted by centrifugation (1000g for 5 min). […] Aliquots of crude cell extracts were diluted in 2 fold concentrated electrophoresis sample buffer containing SDS, heated and analyzed by SDS- polyacrylamide gel electrophoresis (PAGE). […]

## pseudo-tripeptide Lysψ(CH2N)-Pro-Arg coupled to a template (H2NLys-Lys-Lys-Gly-Pro-Lys-Glu-Lys-AhxCONH2) [HB-19, pseudopeptide presenting pentavalently the pseudo-tripeptide Lysψ(CH2N)-Pro-Arg coupled to a template]
10 µM HB-19, 24–48 hours
  level and nucleolar localization of nuclear nucleolin: without apparent modification
24 hours
  reduction of surface/cytoplasmic nucleolin: 75%
48 hours
  reduction of surface/cytoplasmic nucleolin: 93%
10 µM HB-19, stained gel
  expression of other cytoplasmic proteins: not affected
